These results are taken from patent publication US12421208B2, “Chemical compounds” (ASTRAZENECA AB, priority 2020, dated 2025).

In one assay the target is hERG (Homo sapiens, UniProt Q12809). Put plainly: hERG inhibition. An excerpt: It is well known that blockade of the cardiac ion channel coded by human ether-n-gogo-related gene (hERG) is a risk factor in drug discovery and development. Blockage of hERG can cause safety problems such as cardiac arrhythmia. Advantageously, the compounds of Formula I have low hERG activity.
hERG, sequence (Q12809 whole entry): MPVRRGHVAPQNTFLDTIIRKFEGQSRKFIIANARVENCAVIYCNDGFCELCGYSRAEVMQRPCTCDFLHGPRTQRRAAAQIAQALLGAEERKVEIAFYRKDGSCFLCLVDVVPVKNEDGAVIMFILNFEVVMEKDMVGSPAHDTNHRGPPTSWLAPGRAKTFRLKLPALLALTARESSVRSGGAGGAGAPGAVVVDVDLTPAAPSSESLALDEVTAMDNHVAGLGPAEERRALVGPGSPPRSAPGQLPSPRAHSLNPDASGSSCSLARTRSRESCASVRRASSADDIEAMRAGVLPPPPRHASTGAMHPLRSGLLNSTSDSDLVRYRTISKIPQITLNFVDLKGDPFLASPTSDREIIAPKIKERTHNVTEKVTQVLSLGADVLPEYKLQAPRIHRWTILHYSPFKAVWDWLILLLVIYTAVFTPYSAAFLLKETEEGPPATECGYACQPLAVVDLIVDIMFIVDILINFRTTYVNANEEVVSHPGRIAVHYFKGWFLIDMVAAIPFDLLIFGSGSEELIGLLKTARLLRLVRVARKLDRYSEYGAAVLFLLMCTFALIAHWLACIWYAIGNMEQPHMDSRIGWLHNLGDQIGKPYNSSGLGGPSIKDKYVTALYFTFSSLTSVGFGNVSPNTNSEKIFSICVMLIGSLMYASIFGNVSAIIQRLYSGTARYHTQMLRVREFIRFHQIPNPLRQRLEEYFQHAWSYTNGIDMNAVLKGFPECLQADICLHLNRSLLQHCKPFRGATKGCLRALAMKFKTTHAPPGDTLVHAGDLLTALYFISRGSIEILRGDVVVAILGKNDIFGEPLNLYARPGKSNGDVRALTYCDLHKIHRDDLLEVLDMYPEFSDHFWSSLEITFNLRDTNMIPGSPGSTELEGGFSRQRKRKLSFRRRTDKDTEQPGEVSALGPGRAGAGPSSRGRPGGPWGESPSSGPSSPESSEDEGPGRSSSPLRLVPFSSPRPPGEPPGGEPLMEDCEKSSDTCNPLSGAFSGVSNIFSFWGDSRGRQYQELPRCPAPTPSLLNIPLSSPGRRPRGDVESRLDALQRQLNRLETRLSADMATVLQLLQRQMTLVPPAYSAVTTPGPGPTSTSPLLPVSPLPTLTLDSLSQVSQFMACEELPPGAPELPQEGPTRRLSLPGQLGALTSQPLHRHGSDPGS
In general terms: Block of hERG is tested as a sign of cardiac risk.

Another assay relates to BRCA2 (−/−) DLD1 cells. Put plainly: PARP proliferation assay (7 day compound dosing), BRCA2 (−/−) DLD1. The following applies: Homo sapiens, DLD-1, 168 h, BRCA2 −/− DLD-1 cells, 7 day dosing; read-out: BRCA2 −/− DLD-1 prolif. 7 d IC50. It is filed as cell-based. How it is done: (§1) PARP Proliferation Assay (7 Day Compound Dosing)
(§2) DLD1 and BRCA2 (−/−) DLD1 cells were harvested to a density of 5000 cells/ml and 2.5E4 cells/ml respectively in complete media, 40 μL/well seeded into 384-well plates (Greiner, Kremsmunster, Austria; 781090) using a Multidrop Combi then incubated at 37° C., 5% CO2 overnight. Next day (Day 1) using a Multidrop Combi add sytoxgreen (5 ul, 2 uM) and saponin (10 ul, 0.25% stock) to a day 0 plate, seal the plate using a black adhesive lid and incubate for >3 h at rt. Cells were imaged using Cell Insight (Thermo Fisher) fitted with a 4× objective. Test compounds are added using an Echo 555 and placed in incubator maintained at 37° C., 5% CO2 and incubated for 7 days. On Day 8 add sytox green (5 ul, 2 uM) and then saponin (10 ul, 0.25% stock) to plates, seal the plate using a black adhesive lid and incubate for >3 h at rt. Read all cells on the Cell Insight with 4× Objective. The rate of proliferation is determined in Genedata by assessing the total cell number output from the Cell Insight for Day 0 and Day 8 plates.

A further assay deals with DLD1 cells. Put plainly: PARP proliferation assay (7 day compound dosing), WT DLD1. It is filed as cell-based. The following applies: Homo sapiens, 168 h; WT DLD-1 cells, 7 day dosing; read-out: WT DLD-1 prolif. 7 d IC50. How it is done:
as §1, §2

`CNC(=O)c1ccc(N2CCN(Cc3ccc4nc(C)c(=O)[nH]c4c3C)CC2)c(F)n1` [Example 1, 5-[4-[(2,5-dimethyl-3-oxo-4H-quinoxalin-6-yl)methyl]piperazin-1-yl]-6-fluoro-N-methyl-pyridine-2-carboxamide]: the IC50 at hERG is over 40000 nM; in the assay on BRCA2 (−/−) DLD1 cells, 14 nM; with DLD1 cells it was 24000 nM.

On to `CNC(=O)c1ccc(N2CCN(Cc3ccc4nc(C)c(=O)[nH]c4c3C)CC2)cn1` [Example 2, 5-[4-[(2,5-dimethyl-3-oxo-4H-quinoxalin-6-yl)methyl]piperazin-1-yl]-N-methyl-pyridine-2-carboxamide], for which the IC50 is over 40000 nM against hERG and 734 nM with BRCA2 (−/−) DLD1 cells.

With `CNC(=O)c1ccc(N2CCN(Cc3ccc4nc(C)c(=O)[nH]c4c3C)CC2)c(Cl)n1` [Example 3, 6-chloro-5-[4-[(2,5-dimethyl-3-oxo-4H-quinoxalin-6-yl)methyl]piperazin-1-yl]-N-methyl-pyridine-2-carboxamide], the IC50 is over 40000 nM against hERG, 8 nM in the assay on BRCA2 (−/−) DLD1 cells and 25000 nM in the assay on DLD1 cells. For `Cc1nc2ccc(CN3CCN(c4ccc(C(N)=O)nc4F)CC3)c(C)c2[nH]c1=O` [Example 5, 5-[4-[(2,5-dimethyl-3-oxo-4H-quinoxalin-6-yl)methyl]piperazin-1-yl]-6-fluoro-pyridine-2-carboxamide], the IC50 in the assay with BRCA2 (−/−) DLD1 cells was 2890 nM. As to `Cc1nc(C(N)=O)ccc1N1CCN(Cc2ccc3nc(C)c(=O)[nH]c3c2C)CC1` [Example 7, 5-[4-[(2,5-dimethyl-3-oxo-4H-quinoxalin-6-yl)methyl]piperazin-1-yl]-6-methyl-pyridine-2-carboxamide], the IC50 is 8430 nM with BRCA2 (−/−) DLD1 cells and over 30000 nM in the assay on DLD1 cells.

On to `CNC(=O)c1ccc(N2CCN(Cc3ccc4nc(C(C)(F)F)c(=O)[nH]c4c3F)CC2)c(C)n1` [Example 19, 5-[4-[[2-(1,1-difluoroethyl)-5-fluoro-3-oxo-4H-quinoxalin-6-yl]methyl]piperazin-1-yl]-N,6-dimethyl-pyridine-2-carboxamide], for which the figures for the IC50 at hERG and in the assay with BRCA2 (−/−) DLD1 cells were over 40000 nM and 6 nM, respectively. `CNC(=O)c1ccc(N2CCN(Cc3ccc4nc(C)c(=O)[nH]c4c3F)CC2)c(C(F)F)n1` [Example 21, 6-(difluoromethyl)-5-[4-[(5-fluoro-2-methyl-3-oxo-4H-quinoxalin-6-yl)methyl]piperazin-1-yl]-N-methyl-pyridine-2-carboxamide]: the IC50 against hERG was over 40000 nM; with BRCA2 (−/−) DLD1 cells, 1420 nM. As for `CCc1nc2ccc(CN3CCN(c4ccc(C(N)=O)nc4)CC3)c(F)c2[nH]c1=O` [Example 25, 5-[4-[(2-ethyl-5-fluoro-3-oxo-4H-quinoxalin-6-yl)methyl]piperazin-1-yl]pyridine-2-carboxamide], the IC50 with BRCA2 (−/−) DLD1 cells is 297 nM.

Take `CCc1nc2ccc(CN3CCN(c4ccc(C(=O)NC)nc4Cl)CC3)c(F)c2[nH]c1=O` [Example 28, 6-chloro-5-[4-[(2-ethyl-5-fluoro-3-oxo-4H-quinoxalin-6-yl)methyl]piperazin-1-yl]-N-methyl-pyridine-2-carboxamide]: the IC50 on hERG was over 38000 nM; in the assay on BRCA2 (−/−) DLD1 cells, 4 nM. On to `CNC(=O)c1ccc(N2CCN(Cc3ccc4nc(C)c(=O)[nH]c4c3F)CC2)c(C)n1` [Example 31, 5-[4-[(5-fluoro-2-methyl-3-oxo-4H-quinoxalin-6-yl)methyl]piperazin-1-yl]-N,6-dimethyl-pyridine-2-carboxamide], for which the IC50 at hERG is over 40000 nM; with DLD1 cells it was over 30000 nM.

For the compound `CNC(=O)c1ccc(N2CCN(Cc3ccc4ncc(=O)[nH]c4c3F)CC2)cn1` [Example 33, 5-[4-[(5-fluoro-3-oxo-4H-quinoxalin-6-yl)methyl]piperazin-1-yl]-N-methyl-pyridine-2-carboxamide], in the assay with BRCA2 (−/−) DLD1 cells, the IC50 is over 30000 nM. The same measure, in the same setting: for `CNC(=O)c1ccc(N2CCN(Cc3ccc4ncc(=O)[nH]c4c3F)CC2)c(Cl)n1` [Example 34, 6-chloro-5-[4-[(5-fluoro-3-oxo-4H-quinoxalin-6-yl)methyl]piperazin-1-yl]-N-methyl-pyridine-2-carboxamide] the value was 8440 nM. As for `CNC(=O)c1ccc(N2CCN(Cc3ccc4ncc(=O)[nH]c4c3F)CC2)c(C)n1` [Example 35, 5-[4-[(5-fluoro-3-oxo-4H-quinoxalin-6-yl)methyl]piperazin-1-yl]-N,6-dimethyl-pyridine-2-carboxamide], the figures for the IC50 in the assay on BRCA2 (−/−) DLD1 cells and in the assay with DLD1 cells were 10300 nM and over 30000 nM, respectively. As for `CNC(=O)c1ccc(N2CCN(Cc3ccc4ncc(=O)[nH]c4c3F)CC2)c(F)n1` [Example 36, 6-fluoro-5-[4-[(5-fluoro-3-oxo-4H-quinoxalin-6-yl)methyl]piperazin-1-yl]-N-methyl-pyridine-2-carboxamide], in the assay with BRCA2 (−/−) DLD1 cells, the IC50 stood at 16200 nM.

For `CNC(=O)c1ccc(N2CCN(Cc3ccc4nc(C(F)F)c(=O)[nH]c4c3F)CC2)c(C)n1` [Example 37, 5-[4-[[2-(difluoromethyl)-5-fluoro-3-oxo-4H-quinoxalin-6-yl]methyl]piperazin-1-yl]-N,6-dimethyl-pyridine-2-carboxamide], the IC50 in the assay on BRCA2 (−/−) DLD1 cells is 10 nM.

Regarding `CNC(=O)c1ccc(N2CCN(Cc3ccc4nc(OC)c(=O)[nH]c4c3F)CC2)cn1` [Example 38, 5-[4-[(5-fluoro-2-methoxy-3-oxo-4H-quinoxalin-6-yl)methyl]piperazin-1-yl]-N-methyl-pyridine-2-carboxamide], the IC50 against hERG is over 40000 nM; in the assay on BRCA2 (−/−) DLD1 cells it was 547 nM. For the compound `CNC(=O)c1ccc(N2CCN(Cc3ccc4nc(OC)c(=O)[nH]c4c3F)CC2)c(F)n1` [Example 39, 6-fluoro-5-[4-[(5-fluoro-2-methoxy-3-oxo-4H-quinoxalin-6-yl)methyl]piperazin-1-yl]-N-methyl-pyridine-2-carboxamide], the IC50 was over 40000 nM on hERG and 8 nM in the assay with BRCA2 (−/−) DLD1 cells. Taken in the same sequence, the figures for `CNC(=O)c1ccc(N2CCN(Cc3ccc4nc(OC)c(=O)[nH]c4c3F)CC2)c(C)n1` [Example 40, 5-[4-[(5-fluoro-2-methoxy-3-oxo-4H-quinoxalin-6-yl)methyl]piperazin-1-yl]-N,6-dimethyl-pyridine-2-carboxamide] were over 40000 nM and 7 nM.

Consider `CNC(=O)c1ccc(N2CCN(Cc3ccc4nc(OC)c(=O)[nH]c4c3F)CC2)c(Cl)n1` [Example 41, 6-chloro-5-[4-[(5-fluoro-2-methoxy-3-oxo-4H-quinoxalin-6-yl)methyl]piperazin-1-yl]-N-methyl-pyridine-2-carboxamide], for which the IC50 at hERG was over 40000 nM; in the assay with BRCA2 (−/−) DLD1 cells, 7 nM. On to `CCc1nc2ccc(CN3CCN(c4ccc(C(=O)NC)nc4C)CC3)c(C)c2[nH]c1=O` [Example 42, 5-[4-[(2-ethyl-5-methyl-3-oxo-4H-quinoxalin-6-yl)methyl]piperazin-1-yl]-N,6-dimethyl-pyridine-2-carboxamide], for which, in the assay on BRCA2 (−/−) DLD1 cells, the IC50 amounted to 6 nM.

`CCc1nc2ccc(CN3CCN(c4ccc(C(=O)NC)nc4F)CC3)c(C)c2[nH]c1=O` [Example 43, 5-[4-[(2-ethyl-5-methyl-3-oxo-4H-quinoxalin-6-yl)methyl]piperazin-1-yl]-6-fluoro-N-methyl-pyridine-2-carboxamide]: in the assay on BRCA2 (−/−) DLD1 cells, the IC50 amounted to 10 nM. In the case of `CCc1nc2ccc(CN3CCN(c4ccc(C(=O)NC)nc4)CC3)c(C)c2[nH]c1=O` [Example 44, 5-[4-[(2-ethyl-5-methyl-3-oxo-4H-quinoxalin-6-yl)methyl]piperazin-1-yl]-N-methyl-pyridine-2-carboxamide], in the assay with BRCA2 (−/−) DLD1 cells, the IC50 was over 30000 nM. Take `CCNC(=O)c1ccc(N2CCN(Cc3ccc4nc(C)c(=O)[nH]c4c3F)CC2)c(F)n1` [Example 45, N-ethyl-6-fluoro-5-[4-[(5-fluoro-2-methyl-3-oxo-4H-quinoxalin-6-yl)methyl]piperazin-1-yl]pyridine-2-carboxamide]: in the assay on BRCA2 (−/−) DLD1 cells, the IC50 was found to be 6 nM. With `CCNC(=O)c1ccc(N2CCN(Cc3ccc4nc(C)c(=O)[nH]c4c3F)CC2)c(C)n1` [Example 46, N-ethyl-5-[4-[(5-fluoro-2-methyl-3-oxo-4H-quinoxalin-6-yl)methyl]piperazin-1-yl]-6-methyl-pyridine-2-carboxamide], in the assay on BRCA2 (−/−) DLD1 cells, the IC50 was 13 nM.

As for `CNC(=O)c1ccc(N2CCN(Cc3ccc4nc(C(F)(F)F)c(=O)[nH]c4c3F)CC2)c(C)n1` [Example 47, 5-[4-[[5-fluoro-3-oxo-2-(trifluoromethyl)-4H-quinoxalin-6-yl]methyl]piperazin-1-yl]-N,6-dimethyl-pyridine-2-carboxamide], the IC50 against hERG was over 40000 nM; in the assay on BRCA2 (−/−) DLD1 cells, 58 nM. As to `CNC(=O)c1ccc(N2CCN(Cc3ccc4nc(C(F)(F)F)c(=O)[nH]c4c3F)CC2)c(Cl)n1` [Example 49, 6-chloro-5-[4-[[5-fluoro-3-oxo-2-(trifluoromethyl)-4H-quinoxalin-6-yl]methyl]piperazin-1-yl]-N-methyl-pyridine-2-carboxamide], the IC50 against hERG is over 40000 nM; in the assay with BRCA2 (−/−) DLD1 cells, 41 nM. Taken in the same sequence, the figures for `CNC(=O)c1ccc(N2CCN(Cc3ccc4nc(C(F)(F)F)c(=O)[nH]c4c3F)CC2)cn1` [Example 50, 5-[4-[[5-fluoro-3-oxo-2-(trifluoromethyl)-4H-quinoxalin-6-yl]methyl]piperazin-1-yl]-N-methyl-pyridine-2-carboxamide] were over 40000 nM and 136 nM.
